Measurements taken from US7163941B2, “Pyrido[2,3-d]pyrimidin-7-carboxylic acid derivatives, their manufacture and use as pharmaceutical agents” (Hoffmann-La Roche Inc., priority 2003, dated 2007).

Assays:
Lck (p56^lck, active) = target: T1, Lck (p56^lck, active) (Homo sapiens, UniProt P06239); assay: SRC-Inhibitor-Assay (time-resolved fluorescence), Lck enzyme; format: biochemical; conditions: ATP 5 μM, peptide 10 μM, enzyme 2.5 U/ml, pre-incubation 15 min at 15° C.
T1 construct: purchased Upstate (UBI)
Method: (§1) The activity of the compounds according to this invention as inhibitors for the src-family tyrosine kinases was shown by using the following assay.
(§2) SRC-Inhibitor-Assay Parameters:
(§3) • Reaction mixture: • ATP 5 μM • Peptide (R+Ja133-Ro): 10 μM • Ja133-Ro 196 nM • Ro 9.8 μM • PT66 230 ng/ml • Assay buffer: 4 mM MgCl2 • 2 mM TCEP • 50 mM HEPES • 0,1% Tween 20 • pH 7.3 • Enzyme: 2.5 U/ml • Inhibitor: max. 25 μM • min. 0.42 nM Material: • Eu-labelled phosphotyrosine antibody: -for Lck Cisbio Mab PT66-K, • for Src EG&G Wallac PT66 Eu-W1024 (all commercially available). • Peptides: Ro: NH2-A-E-E-E-I-Y-G-E-F-E-A-K-K-K-K-CONH2 (SEQ ID NO: 1), and • Ja133-Ro: Ja133-G-Aminocaprylic acid-A-E-E-E-I-Y-G-E-F-E-A-K-K-K-K-CONH2 (SEQ ID NO: 2), wherein Ja133 is LightCycler-Red 640-N-hydroxy succinimide ester; • whereby both peptides were synthesized by an optimized solid phase peptide synthesis protocol (Merrifield, Fed. Proc. Fed. Amer. Soc. Exp. Biol. 21 (1962) 412) on a Zinsser SMP350 peptide synthesizer. Shortly, the peptide was assembled on 160 mg (22.8 μmol scale) of a Rink-Linker modified polystyrene solid phase by repeatedly conjugating an twenty fold excess of aminoacids each protected by temporary piperidine labile Fmoc- and permanent acid labile tert-Bu-, BOC- and Otert-Bu-groups depending on the side chain function. The substrate sequence AEEEIYGEFEAKKKK (SEQ ID NO: 1) was N-terminal additionally mounted with the spacer amino acids Aminocaprylic acid and Glycin. After cleavage of the N-terminal temporary protecting group the still attached and protected peptide was labeled with a 1.5 fold amount of LightCycler-Red 640-N-hydroxy succinimide ester (purchased by Roche Diagnostics GmbH) and triethylamine. After 3 hrs. the resin was washed with Dimethylformamide and Isopropanol until the eluates of the blue resin got colo-rless. […] The substrate was finally isolated by a preparative reverse phase HPLC purification. The purification yielded 12.2 mg RP-HPLC single peak pure blue material (lyophilisate). The identity was proven by MALDI mass spectroscopy [2720.0]. • Enzymes: Upstate Lck (p56^lck, active), Upstate Src (p60^c-src, partially purified) were purchased from UBI. • Time-resolved Fluorescence Assay: Reader: Perkin Elmer, Wallac Viktor 1420-040 multilabel counter; Liquid handling system: Beckman Coulter, Biomek 2000. ATP, Tween 20, HEPES were purchased from Roche Molecular Biochemicals, MgCl2 and MnCl2 were purchased from Merck Eurolab, TCEP was purchased from Pierce, 384 Well low volume fluorescence plates was purchased from Falcon. Assay Description:
(§4) At first the enzyme is pre-incubated for 15 min. at 15° C. in aqueous solution with corresponding amounts of inhibitors according to this invention. Then the phosphorylation reaction is started by adding a reaction mixture, containing ATP, Peptide and PT66, and subsequent shaking. The proceeding of this reaction is immediately monitored using time resolved fluorescence spectroscopy in a suitable well plate reader.
(§5) The IC50-values can be obtained from the reaction rates by using a non-linear curve fit (Excelfit).

[1] = target: T2, Src (p60^c-src, partially purified) (Homo sapiens, UniProt P12931); assay: SRC-Inhibitor-Assay (time-resolved fluorescence), Src enzyme; format: biochemical; conditions: ATP 5 μM, peptide 10 μM, enzyme 2.5 U/ml, pre-incubation 15 min at 15° C.
T2 construct: purchased Upstate (UBI)
Method: as §1, §2, §3, §4, §5

T1 sequence (P06239 whole entry, species assumed): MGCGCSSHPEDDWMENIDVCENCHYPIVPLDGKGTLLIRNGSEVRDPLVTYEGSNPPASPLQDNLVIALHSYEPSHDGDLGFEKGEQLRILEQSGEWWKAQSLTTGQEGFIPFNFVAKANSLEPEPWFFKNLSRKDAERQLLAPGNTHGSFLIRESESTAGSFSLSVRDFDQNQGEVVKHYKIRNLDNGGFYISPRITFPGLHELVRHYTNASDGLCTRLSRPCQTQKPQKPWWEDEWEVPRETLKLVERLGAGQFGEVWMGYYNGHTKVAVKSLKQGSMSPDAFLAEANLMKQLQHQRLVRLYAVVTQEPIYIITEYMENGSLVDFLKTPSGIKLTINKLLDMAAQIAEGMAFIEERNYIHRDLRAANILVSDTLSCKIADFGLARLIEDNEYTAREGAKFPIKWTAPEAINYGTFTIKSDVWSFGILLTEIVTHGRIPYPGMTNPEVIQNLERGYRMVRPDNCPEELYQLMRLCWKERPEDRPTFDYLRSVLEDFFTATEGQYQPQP
T2 sequence (P12931 whole entry, species assumed): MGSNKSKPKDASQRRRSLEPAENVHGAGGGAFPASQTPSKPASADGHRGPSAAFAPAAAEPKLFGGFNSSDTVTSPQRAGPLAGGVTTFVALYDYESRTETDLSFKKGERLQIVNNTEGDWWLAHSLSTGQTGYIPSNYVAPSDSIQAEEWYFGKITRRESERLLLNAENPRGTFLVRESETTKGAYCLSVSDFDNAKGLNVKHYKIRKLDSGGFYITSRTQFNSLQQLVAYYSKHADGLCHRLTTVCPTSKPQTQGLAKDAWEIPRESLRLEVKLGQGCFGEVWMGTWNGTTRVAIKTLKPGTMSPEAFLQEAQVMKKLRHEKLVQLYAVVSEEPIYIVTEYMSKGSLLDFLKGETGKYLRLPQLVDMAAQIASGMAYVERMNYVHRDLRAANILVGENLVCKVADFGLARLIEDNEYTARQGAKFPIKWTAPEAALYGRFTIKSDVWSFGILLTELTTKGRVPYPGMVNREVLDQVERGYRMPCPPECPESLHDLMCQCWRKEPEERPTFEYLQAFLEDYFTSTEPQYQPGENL

Row | Structure (SMILES) | IC50 (Lck (p56^lck, active)) [nM] | IC50 [1] [nM]
1 | CS(=O)(=O)NCCNC(=O)c1nc2nc(Nc3cccc(NS(C)(=O)=O)c3)ncc2cc1-c1ccccc1Br [Example 7-17, 6-(2-bromo-phenyl)-2-(3-methanesulfonylamino-phenylamino)-pyrido[2,3-d]pyrimidine-7-carboxylic acid (2-methanesulfonylamino-ethyl)-amide] | 11.8 | 3.5
2 | CN1CCN(c2ccc(Nc3ncc4cc(-c5ccccc5Br)c(C(=O)NCCNS(C)(=O)=O)nc4n3)cc2)CC1 [Example 7-19, 6-(2-bromo-phenyl)-2-[4-(4-methyl-piperazin-1-yl)-phenylamino]-pyrido[2,3-d]pyrimidine-7-carboxylic acid (2-methanesulfonylamino-ethyl)-amide] | 2.1 | 1
3 | CC(CNC(=O)c1nc2nc(Nc3ccc(F)cc3)ncc2cc1-c1ccccc1Br)N(C)C (stereo not shown) [Example 3-27, 6-(2-Bromo-phenyl)-2-(4-fluoro-phenylamino)-pyrido[2,3-d]pyrimidine-7-carboxylic acid (2-dimethylamino-propyl)-amide] | 129 | 23.9
4 | O=C(N[C@H]1CCNC1)c1nc2nc(Nc3ccc(F)cc3)ncc2cc1-c1ccccc1Br [Example 3-28, (S)-6-(2-Bromo-phenyl)-2-(4-fluoro-phenylamino)-pyrido[2,3-d]pyrimidine-7-carboxylic acid pyrrolidin-3-ylamide] | 62.7 | 19.3
5 | O=C(NC[C@H]1CCCN1)c1nc2nc(Nc3ccc(F)cc3)ncc2cc1-c1ccccc1Br [Example 3-48, (R)-6-(2-Bromo-phenyl)-2-(4-fluoro-phenylamino)-pyrido[2,3-d]pyrimidine-7-carboxylic acid (pyrrolidin-2-ylmethyl)-amide] | 38.1 | 2.1
6 | O=C(NCCN1CCNC1=O)c1nc2nc(Nc3ccc(F)cc3)ncc2cc1-c1ccccc1Br [Example 3-25, 6-(2-Bromo-phenyl)-2-(4-fluoro-phenylamino)-pyrido[2,3-d]pyrimidine-7-carboxylic acid[2-(2-oxo-imidazolidin-1-yl)-ethyl]-amide] | 370 | 157
7 | O=C(NCCO)c1nc2nc(Nc3ccc(F)cc3)ncc2cc1-c1ccccc1Br [Example 3-45, 6-(2-Bromo-phenyl)-2-(4-fluoro-phenylamino)-pyrido[2,3-d]pyrimidine-7-carboxylic acid (2-hydroxy-ethyl)-amide] | 155 | 21.5
8 | CS(=O)(=O)c1cccc(Nc2ncc3cc(-c4ccccc4Br)c(C(N)=O)nc3n2)c1 [Example 3-7, 6-(2-Bromo-phenyl)-2-(3-methanesulfonyl-phenylamino)-pyrido[2,3-d]pyrimidine-7-carboxylic acid amide] | 113 | 16.6
9 | CN(C)CC(=O)NNC(=O)c1nc2nc(Nc3ccc(F)cc3)ncc2cc1-c1ccccc1Br [Example 3-46, 6-(2-Bromo-phenyl)-2-(4-fluoro-phenylamino)-pyrido[2,3-d]pyrimidine-7-carboxylic acid N′-(2-dimethylamino-acetyl)-hydrazide] | 38.1 | 16.8
10 | CSc1cccc(Nc2ncc3cc(-c4ccccc4Br)c(C(=O)NCCN(C)C)nc3n2)c1 [Example 3-8, 6-(2-Bromo-phenyl)-2-(3-methylsulfanyl-phenylamino)-pyrido[2,3-d]pyrimidine-7-carboxylic acid (2-dimethylamino-ethyl)-amide] | 32.3 | 1.7
11 | CN(C)C(=O)CNC(=O)c1nc2nc(Nc3ccc(F)cc3)ncc2cc1-c1ccccc1Br [Example 3-30, 6-(2-Bromo-phenyl)-2-(4-fluoro-phenylamino)-pyrido[2,3-d]pyrimidine-7-carboxylic acid dimethylcarbamoylmethyl-amide] | 151 | 247

Further compounds by falling IC50 (Lck (p56^lck, active)), results first:

Row | IC50 (Lck (p56^lck, active)) [nM] | IC50 [1] [nM] | Structure (SMILES)
12 | 809 | 129 | O=C(NCC[S+]([O-])CCO)c1nc2nc(Nc3ccc(F)cc3)ncc2cc1-c1ccccc1Br (stereo not shown) [Example 3-43, 6-(2-Bromo-phenyl)-2-(4-fluoro-phenylamino)-pyrido[2,3-d]pyrimidine-7-carboxylic acid [2-(2-hydroxy-ethanesulfinyl)-ethyl]-amide]
13 | 584 | 149 | C[S+]([O-])CCNC(=O)c1nc2nc(Nc3ccc(F)cc3)ncc2cc1-c1ccccc1Br (stereo not shown) [Example 3-40, 6-(2-Bromo-phenyl)-2-(4-fluoro-phenylamino)-pyrido[2,3-d]pyrimidine-7-carboxylic acid (2-methanesulfinyl-ethyl)-amide]
14 | 573 | 195 | CC(CN(C)C)NC(=O)c1nc2nc(Nc3ccc(F)cc3)ncc2cc1-c1ccccc1Br (stereo not shown) [Example 3-23, 6-(2-Bromo-phenyl)-2-(4-fluoro-phenylamino)-pyrido[2,3-d]pyrimidine-7-carboxylic acid (2-dimethylamino-1-methyl-ethyl)-amide]
15 | 357 | 200 | CN(C)CCN(C)C(=O)c1nc2nc(Nc3ccc(F)cc3)ncc2cc1-c1ccccc1Br [Example 3-19, 6-(2-Bromo-phenyl)-2-(4-fluoro-phenylamino)-pyrido[2,3-d]pyrimidine-7-carboxylic acid (2-dimethylamino-ethyl)-methyl-amide]
16 | 233 | 21.7 | CN(C)CCCNC(=O)c1nc2nc(Nc3ccc(F)cc3)ncc2cc1-c1ccccc1Br [Example 3-14, 6-(2-Bromo-phenyl)-2-(4-fluoro-phenylamino)-pyrido[2,3-d]pyrimidine-7-carboxylic acid (3-dimethylamino-propyl)-amide]
17 | 232 | 11.3 | NS(=O)(=O)CCNC(=O)c1nc2nc(Nc3ccc4c(c3)S(=O)(=O)CCO4)ncc2cc1-c1ccccc1Br [Example 7-13, 6-(2-bromo-phenyl)-2-(4,4-dioxo-3,4-dihydro-2H-4lambda*6*-benzo[1,4]oxathiin-6-ylamino)-pyrido[2,3-d]pyrimidine-7-carboxylic acid (2-sulfamoyl-ethyl)-amide]
18 | 127 | 97.9 | O=C(N[C@@H]1CCCNC1)c1nc2nc(Nc3ccc(F)cc3)ncc2cc1-c1ccccc1Br [Example 3-34, (R)-6-(2-Bromo-phenyl)-2-(4-fluoro-phenylamino)-pyrido[2,3-d]pyrimidine-7-carboxylic acid piperidin-3-ylamide]
19 | 110 | 35.7 | CNS(=O)(=O)Cc1cccc(Nc2ncc3cc(-c4ccccc4Br)c(C(N)=O)nc3n2)c1 [Example 3-5, 6-(2-Bromo-phenyl)-2-(3-methylsulfamoylmethyl-phenylamino)-pyrido[2,3-d]pyrimidine-7-carboxylic acid amide]
20 | 49.9 | 4.5 | N#Cc1nc2nc(Nc3ccc(OCCO)cc3)ncc2cc1-c1ccccc1Br [Example 4-3, 6-(2-Bromo-phenyl)-2-[4-(2-hydroxy-ethoxy)-phenylamino]-pyrido[2,3-d]pyrimidine-7-carbonitrile]
21 | 39.8 | 6.2 | CNCCNC(=O)c1nc2nc(Nc3ccc(F)cc3)ncc2cc1-c1ccccc1Br [Example 3-17, 6-(2-Bromo-phenyl)-2-(4-fluoro-phenylamino)-pyrido[2,3-d]pyrimidine-7-carboxylic acid (2-methylamino-ethyl)-amide]
22 | 6.1 | 1 | CS(=O)(=O)NCCNC(=O)c1nc2nc(Nc3cccc(SCCO)c3)ncc2cc1-c1ccccc1Br [Example 7-23, 6-(2-bromo-phenyl)-2-[3-(2-hydroxy-ethylsulfanyl)-phenylamino]-pyrido[2,3-d]pyrimidine-7-carboxylic acid (2-methanesulfonylamino-ethyl)-amide]
23 | 5.1 | 1.8 | CCN(CC)CCOc1ccc(Nc2ncc3cc(-c4ccccc4Br)c(C#N)nc3n2)cc1 [Example 4-2, 6-(2-Bromo-phenyl)-2-[4-(2-diethylamino-ethoxy)-phenylamino]-pyrido[2,3-d]pyrimidine-7-carbonitrile]
